Reference: paper PMC8793051 (ACS Omega, 2022)

Key:
[1] = system: oligo-2: d(CGATGTACATCG)2; test: UV thermal denaturation; assay type: binding
[2] = system: oligo-1: d(CGCGAATTCGCG)2; test: Fluorescence titration; assay type: binding; conditions: 20 °C, pH 7.2
[3] = system: oligo-2: d(CGATGTACATCG)2; test: Fluorescence titration; assay type: binding; conditions: 20 °C, pH 7.2
[4] = system: HEK; test: MTT cytotoxicity assay; assay type: cell-based; conditions: Homo sapiens, HEK293, 48 h
[5] = system: NIH3T3; test: MTT cytotoxicity assay; assay type: cell-based; conditions: Mus musculus, NIH3T3, 48 h
[6] = system: CCRF-CEM; test: NCI-60 SRB growth assay; assay type: cell-based, human
[7] = system: SR; test: NCI-60 SRB growth assay; assay type: cell-based, human; conditions: Homo sapiens
[8] = system: HOP-62; test: NCI-60 SRB growth assay; assay type: cell-based, human
[9] = system: HOP-92; test: NCI-60 SRB growth assay; assay type: cell-based, human
[10] = system: NCI-H226; test: NCI-60 SRB growth assay; assay type: cell-based, human
[11] = system: NCI-H23; test: NCI-60 SRB growth assay; assay type: cell-based, human
[12] = system: NCI-H460; test: NCI-60 SRB growth assay; assay type: cell-based, human
[13] = system: NCI-H522; test: NCI-60 SRB growth assay; assay type: cell-based, human
[14] = system: HCC-2998; test: NCI-60 SRB growth assay; assay type: cell-based, human
[15] = system: HT29; test: NCI-60 SRB growth assay; assay type: cell-based, human
[16] = system: KM12; test: NCI-60 SRB growth assay; assay type: cell-based, human
[17] = system: SW-620; test: NCI-60 SRB growth assay; assay type: cell-based, human
[18] = system: SF-268; test: NCI-60 SRB growth assay; assay type: cell-based, human
[19] = system: SF-295; test: NCI-60 SRB growth assay; assay type: cell-based, human
[20] = system: U251; test: NCI-60 SRB growth assay; assay type: cell-based, human
[21] = system: SK-MEL-28; test: NCI-60 SRB growth assay; assay type: cell-based, human
[22] = system: UACC-257; test: NCI-60 SRB growth assay; assay type: cell-based, human
[23] = system: IGROV1; test: NCI-60 SRB growth assay; assay type: cell-based, human
[24] = system: OVCAR-5; test: NCI-60 SRB growth assay; assay type: cell-based, human
[25] = system: 786-0; test: NCI-60 SRB growth assay; assay type: cell-based, human
[26] = system: A498; test: NCI-60 SRB growth assay; assay type: cell-based, human
[27] = system: ACHN; test: NCI-60 SRB growth assay; assay type: cell-based, human
[28] = system: CAKI-1; test: NCI-60 SRB growth assay; assay type: cell-based, human
[29] = system: SN12C; test: NCI-60 SRB growth assay; assay type: cell-based, human
[30] = system: PC-3; test: NCI-60 SRB growth assay; assay type: cell-based, human
[31] = system: BT-549; test: NCI-60 SRB growth assay; assay type: cell-based, human
[32] = system: T-47D; test: NCI-60 SRB growth assay; assay type: cell-based, human
[33] = system: MDA-MB-468; test: NCI-60 SRB growth assay; assay type: cell-based, human
[34] = system: panel of 60 human cancer cell lines; test: cells; conditions: read-out: GI50 concentration range

CCCN1CCN(c2ccc3[nH]c(-c4ccc5[nH]c(-c6ccc(OCC)c(OCC)c6)nc5c4)nc3c2)CC1 [11a, 2-(2-(3,4-Diethoxyphenyl)-1H-benzo[d]imidazol-5-yl)-5-(4-propylpiperazin-1-yl)-1H-benzo[d]imidazole]
Tm ([1]; r = 0.5, oligo 2.5 μM): 57.9 °C
Tm ([1]; r = 1): 58.9 °C
ΔTm ([1]; r = 1): 2 °C
Tm ([1]; r = 1.5): 58.9 °C
ΔTm ([1]; r = 1.5): 2 °C
ΔTm ([1]; r = 2.0): 2 °C
Ka binding affinity with oligo-1 [2]: 3 × 10^7 M^–1
Ka binding affinity with oligo-2 [3]: 5 × 10^6 M^1
IC50 [4]: 14400 nM
IC50 [5]: 2300 nM
TGI [6]: 3600 nM
GI50 ([6]; Homo sapiens): 400 nM
CC50 ([6]; Homo sapiens, read-out: LC50): > 100000 nM
GI50 [7]: 290 nM
CC50 ([7]; read-out: LC50): > 100000 nM
TGI ([8]; HOP-62): 5200 nM
GI50 ([8]; Homo sapiens, HOP-62): 1980 nM
CC50 ([8]; Homo sapiens, HOP-62, read-out: LC50): 23400 nM
TGI ([9]; HOP-92): 4500 nM
GI50 ([9]; Homo sapiens, HOP-92): 1200 nM
CC50 ([9]; Homo sapiens, HOP-92, read-out: LC50): 26300 nM
GI50 ([10]; Homo sapiens, NCI-H226): 800 nM
CC50 ([10]; Homo sapiens, NCI-H226, read-out: LC50): 37500 nM
TGI ([10]; NCI–H226): 3500 nM
GI50 ([11]; Homo sapiens, NCI-H23): 250 nM
CC50 ([11]; Homo sapiens, NCI-H23, read-out: LC50): 4240 nM
TGI ([11]; NCI–H23): 700 nM
GI50 ([12]; Homo sapiens, NCI-H460): 430 nM
CC50 ([12]; Homo sapiens, NCI-H460, read-out: LC50): 4380 nM
TGI ([12]; NCI–H460): 1510 nM
GI50 ([13]; Homo sapiens, NCI-H522): 450 nM
TGI ([13]; NCI–H522): 2110 nM
TGI ([14]; HCC-2998): 2620 nM
GI50 ([14]; Homo sapiens, HCC 2998): 1240 nM
CC50 ([14]; Homo sapiens, HCC 2998, read-out: LC50): 5500 nM
TGI ([15]; HT29): 2300 nM
GI50 ([15]; Homo sapiens, HT-29): 450 nM
CC50 ([15]; Homo sapiens, HT-29, read-out: LC50): > 100000 nM
GI50 ([16]; Homo sapiens, KM12): 1260 nM
CC50 ([16]; Homo sapiens, KM12, read-out: LC50): 6400 nM
TGI ([16]; KM12): 2800 nM
GI50 ([17]; Homo sapiens, SW-620): 300 nM
CC50 ([17]; Homo sapiens, SW-620, read-out: LC50): 4300 nM
TGI ([17]; SW620): 1200 nM
GI50 ([18]; Homo sapiens, SF-268): 1900 nM
CC50 ([18]; Homo sapiens, SF-268, read-out: LC50): 68800 nM
TGI ([18]; SF-268): 11500 nM
GI50 ([19]; Homo sapiens, SF-295): 500 nM
CC50 ([19]; Homo sapiens, SF-295, read-out: LC50): 7800 nM
TGI ([19]; SF-265): 2300 nM
GI50 ([20]; Homo sapiens, U-251): 420 nM
CC50 ([20]; Homo sapiens, U-251, read-out: LC50): 4800 nM
TGI ([20]; U251): 1800 nM
GI50 ([21]; Homo sapiens, SK-MEL-28): 910 nM
CC50 ([21]; Homo sapiens, SK-MEL-28, read-out: LC50): 5200 nM
TGI ([21]; SK-MEL-28): 2200 nM
GI50 ([22]; Homo sapiens, UACC-257): 790 nM
CC50 ([22]; Homo sapiens, UACC-257, read-out: LC50): 9400 nM
TGI ([22]; UACC-257): 2800 nM
GI50 ([23]; Homo sapiens, IGROV-1): 760 nM
CC50 ([23]; Homo sapiens, IGROV-1, read-out: LC50): 37800 nM
TGI ([23]; IGROV1): 4100 nM
GI50 ([24]; Homo sapiens, OVCAR-5): 2090 nM
CC50 ([24]; Homo sapiens, OVCAR-5, read-out: LC50): 15900 nM
TGI ([24]; OVCAR-5): 5010 nM
TGI ([25]; 786–0): 2500 nM
GI50 ([25]; Homo sapiens, 786-0): 1130 nM
CC50 ([25]; Homo sapiens, 786-0, read-out: LC50): 5540 nM
TGI ([26]; A498): 1790 nM
GI50 ([26]; Homo sapiens, A498): 470 nM
CC50 ([26]; Homo sapiens, A498, read-out: LC50): 4380 nM
TGI [27]: 2100 nM
GI50 ([27]; Homo sapiens): 820 nM
CC50 ([27]; Homo sapiens, read-out: LC50): 4770 nM
TGI ([28]; CAKI-1): 3030 nM
GI50 ([28]; Homo sapiens, CAKI-1): 1040 nM
CC50 ([28]; Homo sapiens, CAKI-1, read-out: LC50): 8800 nM
GI50 ([29]; Homo sapiens, SN12C): 450 nM
CC50 ([29]; Homo sapiens, SN12C, read-out: LC50): 6750 nM
TGI ([29]; SN12c): 2060 nM
GI50 ([30]; Homo sapiens, PC-3): 380 nM
CC50 ([30]; Homo sapiens, PC-3, read-out: LC50): 6120 nM
TGI ([30]; PC-3): 1920 nM
TGI ([31]; BT-549): 2720 nM
GI50 ([31]; Homo sapiens, BT-549): 1220 nM
CC50 ([31]; Homo sapiens, BT-549, read-out: LC50): 6070 nM
GI50 ([32]; Homo sapiens, T47D): 910 nM
CC50 ([32]; Homo sapiens, T47D, read-out: LC50): > 100000 nM
TGI ([32]; T-47D): 9110 nM
GI50 ([33]; Homo sapiens, MDA-MB-468): 430 nM
CC50 ([33]; Homo sapiens, MDA-MB-468, read-out: LC50): 7070 nM
TGI ([33]; MDA-MB-468): 1820 nM
GI50 [34]: 160 to 3600 nM
